Assay results from US10435406B2, “6,7-cyclicmorphinan derivatives and use thereof” (Purdue Pharma L.P., priority 2014, dated 2019).

Experiments:
[1] = target: T1, μ-opioid receptor (Homo sapiens (Human), UniProt P35372); experiment: μ-opioid receptor radioligand dose-displacement binding assay (HEK); details: HEK cells; [3H]-diprenorphine
Procedure: Radioligand dose-displacement binding assays for μ-opioid receptors used 0.3 nM [^3H]-diprenorphine (Perkin Elmer, Shelton, Conn.), with […] membrane protein/well in a final volume of 500 μl binding buffer (10 mM MgCl2, 1 mM EDTA, 5% DMSO, 50 mM HEPES, pH 7.4). Reactions were carried out in the absence or presence of increasing concentrations of unlabeled naloxone. All reactions were conducted in 96-deep well polypropylene plates for 2 hours at room temperature. Binding reactions were terminated by rapid filtration onto 96-well Unifilter GF/C filter plates (Perkin Elmer, Shelton, Conn.), presoaked in 0.5% polyethylenimine using a 96-well tissue harvester (Perkin Elmer, Shelton, Conn.) followed by performing three filtration washes with 500 μl of ice-cold binding buffer. Filter plates were subsequently dried at 50° C. for 2-3 hours. BetaScint scintillation cocktail (Perkin Elmer, Shelton, Conn.) was added (50 μl/well), and plates were counted using a Packard Top-Count for 1 min/well. The data were analyzed using the one-site competition curve fitting functions in GraphPad PRISM™ v. 3.0 or higher (San Diego, Calif.), or an in-house function for one-site competition curve-fitting.
(§1) In TABLE 2, binding affinity of certain Compounds of the Invention to the μ- and κ-opioid receptors was determined as described above using HEK cells.

[2] = target: T2, κ opioid receptor (Homo sapiens (Human), UniProt P41145); experiment: κ-opioid receptor radioligand dose-displacement binding assay (HEK); details: HEK cells; [3H]-U69,593
Procedure: Membranes from recombinantHEK-293 cells, CHO or U-2 OS cells expressing the recombinant human κ opioid receptor (κ) were prepared by lysing cells in ice cold hypotonic buffer (2.5 mM MgCl2, 50 mM HEPES, pH 7.4) (10 mL/10 cm dish) followed by homogenization with a tissue grinder/Teflon pestle. Membranes were collected by centrifugation at 30,000×g for 15 min at 4° C. and pellets were resuspended in hypotonic buffer to a final concentration of 1-3 mg/mL. Protein concentrations were determined using the BioRad protein assay reagent with bovine serum albumen as standard. Aliquots of κ receptor membranes were stored at −80° C.
Radioligand dose displacement assays used 0.4 nM [^3H]-U69,593 (GE Healthcare, Piscataway, N.J.; 40 Ci/mmole) with 15 μg membrane protein (recombinant κ opioid receptor expressed in HEK 293 cells; in-house prep) in a final volume of 200 μl binding buffer (5% DMSO, 50 mM Trizma base, pH 7.4). Non-specific binding was determined in the presence of 10 μM unlabeled naloxone or U69,593. All reactions were performed in 96-well polypropylene plates for 1 hour at a temperature of about 25° C. Binding reactions were terminated by rapid filtration onto 96-well Unifilter GF/C filter plates (Perkin Elmer, Shelton, Conn.) presoaked in 0.5% polyethylenimine (Sigma). Harvesting was performed using a 96-well tissue harvester (Perkin Elmer, Shelton, Conn.) followed by five filtration washes with 200 μl ice-cold binding buffer. Filter plates were subsequently dried at 50° C. for 1-2 hours. Fifty μl/well scintillation cocktail (Perkin Elmer, Shelton, Conn.) was added and plates were counted in a Packard Top-Count for 1 min/well.
as §1

[3] = target: T1, μ-opioid receptor; experiment: μ-opioid receptor [35S]GTPγS functional assay (HEK); assay type: biochemical; details: for Emax: HEK, GTPγS, relative to DAMGO
Procedure: (§2) [^35S]GTPγS functional assays were conducted using freshly thawed μ-receptor membranes prepared in-house from a cell line expressing recombinant μ opioid receptor in a HEK-293, CHO or U-2 OS cell background, or purchased from a commercial source (Perkin Elmer, Shelton, Conn.; or DiscovRx, Fremont, Calif.). Assay reactions were prepared by sequentially adding the following reagents to binding buffer (100 mM NaCl, 10 mM MgCl2, 20 mM HEPES, pH 7.4) on ice (final concentrations indicated): membrane protein (0.026 mg/mL), saponin ([…]), GDP ([…]) and [^35S]GTPγS (0.20 nM; Perkin Elmer, Shelton, Conn.). The prepared membrane solution (190 μl/well) was transferred to 96-shallow well polypropylene plates containing 10 μl of 20× concentrated stock solutions of the agonist [D-Ala^2, N-methyl-Phe^4 Gly-ol^5]-enkephalin (DAMGO) prepared in dimethyl sulfoxide (DMSO). Plates were incubated for […] at about 25° C. with shaking. Reactions were terminated by rapid filtration onto 96-well Unifilter GF/B filter plates (Perkin Elmer, Shelton, Conn.) using a 96-well tissue harvester (Perkin Elmer, Shelton, Conn.) followed by three filtration washes with 200 μl of ice-cold wash buffer (10 mM NaH2PO4, 10 mM Na2HPO4, pH 7.4). Filter plates were subsequently dried at 50° C. for 2-3 hours. BetaScint scintillation cocktail (Perkin Elmer, Shelton, Conn.) was added (50 μl/well) and plates were counted using a Packard Top-Count for 1 min/well. Data were analyzed using the sigmoidal dose-response curve fitting functions in GraphPad PRISM v. 3.0, or an in-house function for non-linear, sigmoidal dose-response curve-fitting.
(§3) μ GTP EC50 is the concentration of a compound providing 50% of the maximal response for the compound at a μ-opioid receptor.
(§4) μ GTP Emax (%) is the maximal effect elicited by a compound relative to the effect elicited by DAMGO, a standard agonist. Generally, the μ GTP Emax (%) value measures the efficacy of a compound to treat or prevent pain or other Conditions.
(§5) In TABLE 3, activity response of certain Compounds of the Invention to the μ- and κ-opioid receptors was determined as described above for functional assays using HEK cells.

[4] = target: T2, κ opioid receptor; experiment: κ-opioid receptor [35S]GTPγS functional assay (HEK); assay type: biochemical; details: for Emax: HEK, GTPγS, relative to U69,593
Procedure: (§6) Functional [^35S]GTPγS binding assays were conducted as follows. K opioid receptor membrane solution was prepared by sequentially adding final concentrations of 0.026 μg/μl membrane protein (in-house), 10 μg/mL saponin, 3 μM GDP and 0.20 nM [^35S]GTPγS to binding buffer (100 mM NaCl, 10 mM MgCl2, 20 mM HEPES, pH 7.4) on ice. The prepared membrane solution (190 μl/well) was transferred to 96-shallow well polypropylene plates containing 10 μl of 20× concentrated stock solutions of agonist prepared in DMSO. Plates were incubated for 30 min at a temperature of about 25° C. with shaking. Reactions were terminated by rapid filtration onto 96-well Unifilter GF/B filter plates (Perkin Elmer, Shelton, Conn.) using a 96-well tissue harvester (Packard) and followed by three filtration washes with 200 μl ice-cold binding buffer (10 mM NaH2PO4, 10 mM Na2HPO4, pH 7.4). Filter plates were subsequently dried at 50° C. for 2-3 hours. Fifty μl/well scintillation cocktail (Perkin Elmer, Shelton, Conn.) was added and plates were counted in a Packard Top-Count for 1 min/well.
(§7) GTP EC50 is the concentration of a compound providing 50% of the maximal response for the compound at a κ receptor.
(§8) κ GTP Emax (%) is the maximal effect elicited by a compound relative to the effect elicited by U69,593.
as §5

[5] = target: T1, μ-opioid receptor; experiment: μ-opioid receptor [35S]GTPγS functional assay (U-2 OS); assay type: biochemical; details: for Emax: U2OS, GTPγS, relative to DAMGO
Procedure: as §2, §3, §4
(§9) In TABLE 4, activity response of certain Compounds of the Invention to the μ- and κ-opioid receptors was determined as described above for functional assays using U-2 OS cells.

[6] = target: T2, κ opioid receptor; experiment: κ-opioid receptor [35S]GTPγS functional assay (U-2 OS); assay type: biochemical; details: for Emax: U2OS, GTPγS, relative to U69,593
Procedure: as §6, §7, §8, §9

**Q.** What does the source list for `COc1ccc2c(c1)[C@]13CCN(CC4CC4)[C@H](C2)[C@]1(O)C[C@H]1CC(=O)N[C@H]1C3` [Compound 1, (6R,6aS,7aS,10aS,11aR)-14-(cyclopropylmethyl)-6a-hydroxy-2-methoxy-5,6,6a,7,7a,8,10a,11-octahydro-6,11a-(epiminoethano)naphtho[2,1-f]indol-9(10H)-one]?
**A.** Ki [1]: 533 ± 170 nM; Ki [2]: 12.4 ± 3.09 nM; EC50 [3]: 821 ± 190 nM; Emax [3]: 25.8 ± 0.48%; EC50 [4]: 1770 ± 713 nM; Emax [4]: 77 ± 8.19%; EC50 [5]: 223 ± 42 nM; Emax [5]: 81.7 ± 3.33%; EC50 [6]: 66.9 ± 3.47 nM; Emax [6]: 99 ± 1.53%

**Q.** Which results are given for `O=C1C[C@@H]2C[C@@]3(O)[C@H]4Cc5ccc(O)cc5[C@@]3(CCN4CCc3ccccc3)C[C@@H]2N1` [Compound 5, (6R,6aS,7aS,10aS,11aR)-2,6a-dihydroxy-14-phenethyl-5,6,6a,7,7a,8,10a,11-octahydro-6,11a-(epiminoethano)naphtho[2,1-f]indol-9(10H)-one]?
**A.** Ki [2]: 4.03 ± 0.7 nM; EC50 [3]: 1.94 ± 0.073 nM; Emax [3]: 99.7 ± 2.03%; EC50 [4]: > 20000 nM; Emax [4]: -0.25 ± 0.75%

**Q.** Which Ki [1] does the source give for `O=C1C=C2C[C@@]3(O)[C@H]4Cc5ccc(O)cc5[C@@]3(CCN4CC3CC3)CC2N1` (stereo partly drawn) [Compound 9, (6R,6aS,11aR)-14-(cyclopropylmethyl)-2,6a-dihydroxy-5,6,6a,7,10a,11-hexahydro-6,11a-(epiminoethano)naphtho[2,1-f]indol-9(10H)-one] here?
**A.** 2.34 ± 0.27 nM

**Q.** What about the Ki [2] of the same compound?
**A.** 2.16 ± 0.45 nM

**Q.** What about the EC50 [3] of the same compound?
**A.** > 20000 nM

**Q.** And the Emax [3]?
**A.** 1%

**Q.** What about the EC50 [4] of the same compound?
**A.** 7.24 ± 1.69 nM

**Q.** What about the Emax [4] of the same compound?
**A.** 27.2 ± 3.45%

**Q.** What about the EC50 [5] of the same compound?
**A.** 6.35 ± 1.74 nM

**Q.** And the Emax [5]?
**A.** 19.5 ± 0.29%

**Q.** What about the EC50 [6] of the same compound?
**A.** 4.96 ± 0.59 nM

**Q.** And the Emax [6]?
**A.** 87.5 ± 6.44%

**Q.** With `O=C1C[C@@H]2C[C@@]3(O)[C@H]4Cc5ccc(O)cc5[C@@]3(CCN4CC3CC3)C[C@@H]2N1` [Compound 10, (6R,6aS,7aS,10aS,11aR)-14-(cyclopropylmethyl)-2,6a-dihydroxy-5,6,6a,7,7a,8,10a,11-octahydro-6,11a-(epiminoethano)naphtho[2,1-f]indol-9(10H)-one] as the compound, how does the Ki [1] read?
**A.** 0.8 ± 0.1 nM

**Q.** And the Ki [2]?
**A.** 0.16 ± 0.017 nM

**Q.** What about the EC50 [3] of the same compound?
**A.** > 20000 nM

**Q.** What about the Emax [3] of the same compound?
**A.** 0%

**Q.** What about the EC50 [4] of the same compound?
**A.** 1 ± 0.18 nM

**Q.** What about the Emax [4] of the same compound?
**A.** 76.2 ± 5.39%

**Q.** And the EC50 [5]?
**A.** 1.59 ± 0.19 nM

**Q.** And the Emax [5]?
**A.** 46 ± 1%

**Q.** And the EC50 [6]?
**A.** 0.42 ± 0.027 nM

**Q.** And the Emax [6]?
**A.** 112 ± 2.65%

**Q.** Which Ki [2] does the source give for `CCN1C(=O)C[C@@H]2C[C@@]3(O)[C@H]4Cc5ccc(O)cc5[C@@]3(CCN4CC3CC3)C[C@@H]21` [Compound 16, (6R,6aS,7aS,10aS,11aR)-14-(cyclopropylmethyl)-10-ethyl-2,6a-dihydroxy-5,6,6a,7,7a,8,10a,11-octahydro-6,11a-(epiminoethano)-naphtho[2,1-f]indol-9(10H)-one] here?
**A.** 0.31 ± 0.085 nM

**Q.** What about the EC50 [3] of the same compound?
**A.** 4.18 ± 0.61 nM

**Q.** What about the Emax [3] of the same compound?
**A.** 20 ± 0.91%

**Q.** What about the EC50 [4] of the same compound?
**A.** 0.66 ± 0.059 nM

**Q.** What about the Emax [4] of the same compound?
**A.** 49.7 ± 2.19%
